Data as given in ChEMBL document CHEMBL1201862, “PubChem BioAssay data set” (2004).
The source made the active and inactive calls.

Columns and labels:
[1] = target: Voltage-dependent T-type calcium channel subunit alpha-1H (Homo sapiens, UniProt O95180); assay: human CACNA1H calcium influx blockade – cell-based, synthetic library set 1, calcium flux (AID 493022); assay type: functional
[2] = target: T1, Alkaline phosphatase, tissue-nonspecific isozyme (Homo sapiens, UniProt P05186)
T1 sequence (P05186 whole entry): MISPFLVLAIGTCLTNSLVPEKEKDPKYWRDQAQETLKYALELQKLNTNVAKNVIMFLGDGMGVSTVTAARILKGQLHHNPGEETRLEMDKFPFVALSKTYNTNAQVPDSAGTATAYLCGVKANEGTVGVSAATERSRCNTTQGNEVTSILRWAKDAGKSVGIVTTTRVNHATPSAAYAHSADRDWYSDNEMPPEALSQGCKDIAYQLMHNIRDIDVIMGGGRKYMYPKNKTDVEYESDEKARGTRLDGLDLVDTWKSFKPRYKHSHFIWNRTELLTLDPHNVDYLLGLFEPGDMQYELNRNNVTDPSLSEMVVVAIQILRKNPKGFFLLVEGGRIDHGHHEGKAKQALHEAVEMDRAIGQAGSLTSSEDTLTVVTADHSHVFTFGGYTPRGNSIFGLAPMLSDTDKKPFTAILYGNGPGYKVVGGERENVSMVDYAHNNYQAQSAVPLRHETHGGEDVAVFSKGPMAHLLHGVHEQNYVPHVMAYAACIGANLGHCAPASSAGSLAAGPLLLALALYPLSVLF

[3] = target: Melanin-concentrating hormone receptor 1 (Homo sapiens, UniProt Q99705); assay: Fluorescence-based counterscreen for antagonists of the G-protein coupled receptor 7 (GPR7): cell-based high throughput dose response assay to identify antagonists of the melanin-concentrating hormone receptor 1 (MCHR1).; assay type: functional
[4] = target: T2, Tyrosine-protein phosphatase non-receptor type 7 (Homo sapiens, UniProt P35236); assay: inhibition of hematopoietic tyrosine phosphatase HePTP – biochemical, set 2, SAR follow-up (AID 449736); assay type: functional
T2 sequence (P35236 whole entry): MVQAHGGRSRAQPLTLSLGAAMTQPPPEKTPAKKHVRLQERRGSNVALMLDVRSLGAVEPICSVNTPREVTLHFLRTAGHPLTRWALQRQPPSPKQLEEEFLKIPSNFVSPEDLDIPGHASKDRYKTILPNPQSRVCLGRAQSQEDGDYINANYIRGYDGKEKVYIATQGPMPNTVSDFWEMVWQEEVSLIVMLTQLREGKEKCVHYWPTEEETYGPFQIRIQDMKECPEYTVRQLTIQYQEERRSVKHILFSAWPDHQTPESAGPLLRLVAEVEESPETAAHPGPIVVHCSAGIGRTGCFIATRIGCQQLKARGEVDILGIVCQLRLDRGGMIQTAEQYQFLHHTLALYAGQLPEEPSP

Trypsin = Trypsin (Sus scrofa, UniProt P00761); assay: trypsin protease activity blockade – biochemical, quenched peptide fluorescence, cherry-pick, selectivity assay for Rce1 protease inhibitor project, dose response (AID 488789)
[5] = target: T3, Mannose-6-phosphate isomerase (Homo sapiens, UniProt P34949); assay: phosphomannose isomerase inhibition – biochemical, fluorescence intensity, confirmation (AID 1535)
T3 sequence (P34949 whole entry): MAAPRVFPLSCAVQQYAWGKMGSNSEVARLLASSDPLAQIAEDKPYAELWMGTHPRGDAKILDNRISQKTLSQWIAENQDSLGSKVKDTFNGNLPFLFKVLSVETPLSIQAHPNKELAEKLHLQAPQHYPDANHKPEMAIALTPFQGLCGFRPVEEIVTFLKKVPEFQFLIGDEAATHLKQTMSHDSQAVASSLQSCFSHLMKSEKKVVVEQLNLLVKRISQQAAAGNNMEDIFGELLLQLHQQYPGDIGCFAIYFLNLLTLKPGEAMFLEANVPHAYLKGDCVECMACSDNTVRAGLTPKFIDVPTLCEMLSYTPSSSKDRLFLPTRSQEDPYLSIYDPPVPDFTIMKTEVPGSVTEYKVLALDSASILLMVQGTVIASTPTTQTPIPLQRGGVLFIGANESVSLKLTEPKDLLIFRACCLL

Phosphomannomutase 2 = Phosphomannomutase 2 (Homo sapiens, UniProt O15305); assay: Counter screen SAR assay for PMM2 inhibitors via a fluorescence intensity assay. [Related pubchem assays (depositor defined):AID1545, AID1574]
Troponin, cardiac muscle = Troponin, cardiac muscle (Homo sapiens, UniProt P19429+P45379+P63316); assay: Fluorescence-based biochemical high throughput dose response assay for activators of the calcium sensitivity of cardiac Regulated Thin Filaments (RTF). [Related pubchem assays (depositor defined):AID493008, AID493018, AID504382, AID504383]; assay type: protein-complex assay
[6] = target: Photoreceptor-specific nuclear receptor (Homo sapiens, UniProt Q9Y5X4); assay type: functional;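 also: potency for compounds that break the NR2E3 corepressor complex and count as activators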
[7] = target: Peroxisome proliferator-activated receptor gamma/Nuclear receptor corepressor 2 (Homo sapiens, UniProt P37231+Q9Y618); assay type: functional
[8] = target: E3 ubiquitin-protein ligase XIAP (Homo sapiens, UniProt P98170); assay: Counter Screen using XIAP-Bir3 for Chemical Antagonists of Bir1/2 domains of IAP-family anti-apoptotic proteins. [Related pubchem assays (depositor defined):AID1018, AID1449, AID1514, AID1638, AID1749, AID1750, AID488957, AID488963]
Beta-galactosidase = Beta-galactosidase (Escherichia coli, UniProt Q8VNN2); assay: detection-enzyme interference by beta-gal modulators – biochemical, E. coli enzyme, set 3, artefact control for CCR6 antagonist project, dose response (AID 504712); assay type: functional
[9] = Fluorescence-based cell-based high throughput dose response assay for inhibitors of the interaction of nucleotide-binding oligomerization domain containing 2 (NOD2) and the receptor-interacting serine-threonine kinase 2 (RIPK2).; assay type: functional; conditions: Homo sapiens
[10] = viability loss in THP-1 monocytes – THP-1 cells, cytotoxicity control for Vif-APOBEC3G degradation inhibitor project, dose response (AID 1117359); assay type: functional; conditions: THP-1
Wee1-like protein kinase = Wee1-like protein kinase (Homo sapiens, UniProt P30291); assay: HeLa cell cycle G2/M accumulation – FACS, mechanism study for Wee1 degradation inhibitor project, late-stage follow-up, panel member Wee1 Degradation (AID 2088)
[11] = target: G2/mitotic-specific cyclin-B1 (Homo sapiens, UniProt P14635); assay: HeLa cell cycle G2/M accumulation – FACS, mechanism study for Wee1 degradation inhibitor project, late-stage follow-up, panel member Cyclin B Degradation (AID 2088)
[12] = target: Eukaryotic translation initiation factor 4H (Homo sapiens, UniProt Q15056); assay: eIF4H binding inhibition – biochemical, uHTS, fluorescence polarization, translation initiation inhibitor project, primary screen (AID 2012)
[13] = test system: Streptococcus sp. 'group A'; assay: Streptococcus pyogenes SK(-)GAS viability under kanamycin – luminescence, BacTiterGlo, confirmation, counter-screen for streptokinase expression inhibitor project, dose response (AID 1900); assay type: functional, organism-based
Streptokinase A = target: T4, Streptokinase A (Streptococcus pyogenes serotype M1, UniProt P10520); assay: viability-normalized secreted streptokinase activity reduction – plasminogen activation absorbance, OD405, dose response (AID 1914); assay type: functional, Streptococcus pyogenes M1 GAS;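 also: secreted streptokinase activity via plasminogen activation per viability signal from cell pellet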
T4 sequence (P10520 whole entry): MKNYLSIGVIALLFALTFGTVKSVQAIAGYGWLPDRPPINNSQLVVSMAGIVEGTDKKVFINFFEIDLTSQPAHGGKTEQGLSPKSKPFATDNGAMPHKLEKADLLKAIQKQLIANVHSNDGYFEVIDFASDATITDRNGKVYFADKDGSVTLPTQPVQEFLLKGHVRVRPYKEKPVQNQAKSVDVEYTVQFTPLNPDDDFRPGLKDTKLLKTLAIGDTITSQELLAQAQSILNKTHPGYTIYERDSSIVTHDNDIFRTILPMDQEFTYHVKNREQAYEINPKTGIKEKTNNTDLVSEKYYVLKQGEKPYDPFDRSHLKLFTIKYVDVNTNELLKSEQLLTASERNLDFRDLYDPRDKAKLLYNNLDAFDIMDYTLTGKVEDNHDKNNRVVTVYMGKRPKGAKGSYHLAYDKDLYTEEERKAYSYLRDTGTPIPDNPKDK

Streptococcus = assay: GAS UMAA2166 growth inhibition – luminescence, BacTiterGlo, counter-screen for streptokinase expression inhibitor project, dose response (AID 1915); assay type: functional, organism-based;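 also: potency for reduction of bacterial viability or growth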
[14] = target: Polyadenylate-binding protein 1 (Homo sapiens, UniProt P11940); assay: blockers of PABP interaction with poly(A) – biochemical, fluorescence polarization, […] (AID 2014)
[15] = target: T5, Carboxy-terminal domain RNA polymerase II polypeptide A small phosphatase 1 (Homo sapiens, UniProt Q9GZU7); assay: CTDSP1 inhibitors, concentration-response, biochemical, absorbance readout, ultra-high-throughput screen actives (AID 540297); assay type: functional
T5 sequence (Q9GZU7 whole entry): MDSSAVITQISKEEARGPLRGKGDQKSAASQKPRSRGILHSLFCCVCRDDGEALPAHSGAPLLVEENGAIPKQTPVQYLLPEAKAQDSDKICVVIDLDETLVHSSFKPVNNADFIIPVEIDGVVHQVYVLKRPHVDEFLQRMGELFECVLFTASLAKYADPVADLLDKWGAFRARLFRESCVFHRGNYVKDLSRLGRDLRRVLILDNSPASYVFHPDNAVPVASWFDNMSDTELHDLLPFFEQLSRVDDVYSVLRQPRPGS

[16] = target: T2, Tyrosine-protein phosphatase non-receptor type 7; assay type: functional
[17] = target: Glyceraldehyde-3-phosphate dehydrogenase (Homo sapiens, UniProt P04406)
[18] = target: Heat shock cognate 71 kDa protein (Homo sapiens, UniProt P11142); assay: In Vitro Hsc70 Dose Response Fluorescence Polarization Assay. [Related pubchem assays: 1072 ]
[19] = target: Heat shock 70 kDa protein 1A (Homo sapiens, UniProt P0DMV8); assay: inhibition of Hsp70 binding activity – biochemical, fluorescence polarization, SAR follow-up (AID 1072)
[20] = target: T6, Dual specificity protein phosphatase 6 (Rattus norvegicus, UniProt Q64346)
T6 sequence (Q64346 whole entry): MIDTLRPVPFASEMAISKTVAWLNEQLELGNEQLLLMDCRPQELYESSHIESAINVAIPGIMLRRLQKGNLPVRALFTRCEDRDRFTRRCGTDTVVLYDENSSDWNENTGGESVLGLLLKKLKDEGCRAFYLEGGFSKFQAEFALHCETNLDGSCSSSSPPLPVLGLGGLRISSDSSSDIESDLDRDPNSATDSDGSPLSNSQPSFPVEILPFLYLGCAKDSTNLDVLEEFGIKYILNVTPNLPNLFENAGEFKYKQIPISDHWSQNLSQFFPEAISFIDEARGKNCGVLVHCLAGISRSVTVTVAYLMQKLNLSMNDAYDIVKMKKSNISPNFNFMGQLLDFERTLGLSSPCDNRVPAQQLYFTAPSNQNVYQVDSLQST

[21] = target: T6, Dual specificity protein phosphatase 6; assay type: functional
[22] = target: Alkaline phosphatase, placental type (Homo sapiens, UniProt P05187); assay: human placental alkaline phosphatase inhibition – biochemical, luminescence, confirmation (AID 1512); assay type: functional
Chain of Alkaline phosphatase, placental type (P05187 whole entry): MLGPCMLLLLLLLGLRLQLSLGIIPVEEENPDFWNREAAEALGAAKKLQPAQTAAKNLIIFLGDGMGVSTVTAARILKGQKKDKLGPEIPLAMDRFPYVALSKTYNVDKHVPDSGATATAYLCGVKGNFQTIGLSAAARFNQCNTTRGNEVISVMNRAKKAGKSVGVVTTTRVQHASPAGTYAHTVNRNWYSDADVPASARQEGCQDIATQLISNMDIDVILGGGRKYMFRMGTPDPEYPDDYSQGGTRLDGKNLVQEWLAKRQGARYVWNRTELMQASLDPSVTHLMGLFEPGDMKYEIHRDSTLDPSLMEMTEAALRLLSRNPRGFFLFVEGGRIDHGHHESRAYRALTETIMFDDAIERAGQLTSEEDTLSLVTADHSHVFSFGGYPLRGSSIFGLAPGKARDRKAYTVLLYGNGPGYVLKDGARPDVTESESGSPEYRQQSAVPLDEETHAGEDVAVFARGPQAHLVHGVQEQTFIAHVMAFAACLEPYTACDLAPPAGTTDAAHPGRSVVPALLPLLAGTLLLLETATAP

Chain of G2/mitotic-specific cyclin-B1 (P14635 whole entry): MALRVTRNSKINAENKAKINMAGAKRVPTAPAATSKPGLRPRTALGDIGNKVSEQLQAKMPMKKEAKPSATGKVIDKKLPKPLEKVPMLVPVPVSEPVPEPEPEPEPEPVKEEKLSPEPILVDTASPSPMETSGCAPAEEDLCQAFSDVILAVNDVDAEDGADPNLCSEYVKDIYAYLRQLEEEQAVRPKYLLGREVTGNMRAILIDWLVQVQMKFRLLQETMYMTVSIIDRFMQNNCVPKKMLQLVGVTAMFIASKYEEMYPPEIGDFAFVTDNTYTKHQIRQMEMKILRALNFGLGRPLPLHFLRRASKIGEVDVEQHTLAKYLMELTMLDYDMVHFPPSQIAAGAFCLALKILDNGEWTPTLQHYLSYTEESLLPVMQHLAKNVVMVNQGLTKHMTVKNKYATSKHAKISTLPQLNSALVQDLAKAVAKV
Chain of Wee1-like protein kinase (P30291 whole entry): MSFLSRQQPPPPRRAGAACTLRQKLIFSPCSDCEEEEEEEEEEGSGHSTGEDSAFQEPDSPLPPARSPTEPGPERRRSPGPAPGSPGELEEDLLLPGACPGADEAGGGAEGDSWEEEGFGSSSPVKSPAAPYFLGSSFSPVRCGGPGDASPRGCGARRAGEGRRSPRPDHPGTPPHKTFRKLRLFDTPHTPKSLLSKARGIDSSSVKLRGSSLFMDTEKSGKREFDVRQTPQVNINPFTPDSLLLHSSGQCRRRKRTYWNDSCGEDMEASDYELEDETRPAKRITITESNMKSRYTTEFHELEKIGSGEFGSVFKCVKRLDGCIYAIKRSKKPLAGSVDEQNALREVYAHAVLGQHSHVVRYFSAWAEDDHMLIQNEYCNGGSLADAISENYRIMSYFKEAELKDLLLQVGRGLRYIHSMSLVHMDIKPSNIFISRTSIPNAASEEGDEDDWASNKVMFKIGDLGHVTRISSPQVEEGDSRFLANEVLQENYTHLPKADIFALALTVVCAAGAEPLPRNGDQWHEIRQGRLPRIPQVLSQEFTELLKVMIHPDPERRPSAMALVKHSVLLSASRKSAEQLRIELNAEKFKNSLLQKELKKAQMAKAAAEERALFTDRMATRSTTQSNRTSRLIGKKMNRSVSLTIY
Chain of Glyceraldehyde-3-phosphate dehydrogenase (P04406 whole entry): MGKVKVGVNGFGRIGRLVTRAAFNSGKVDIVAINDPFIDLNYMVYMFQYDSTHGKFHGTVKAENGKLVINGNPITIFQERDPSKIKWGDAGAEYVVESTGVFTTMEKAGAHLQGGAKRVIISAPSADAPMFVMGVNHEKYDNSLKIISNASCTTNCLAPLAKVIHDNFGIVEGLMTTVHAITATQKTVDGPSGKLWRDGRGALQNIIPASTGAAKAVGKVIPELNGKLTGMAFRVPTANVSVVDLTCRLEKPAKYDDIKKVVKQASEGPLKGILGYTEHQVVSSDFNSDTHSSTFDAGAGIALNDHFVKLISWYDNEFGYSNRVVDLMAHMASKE
Chain of Voltage-dependent T-type calcium channel subunit alpha-1H (O95180 whole entry): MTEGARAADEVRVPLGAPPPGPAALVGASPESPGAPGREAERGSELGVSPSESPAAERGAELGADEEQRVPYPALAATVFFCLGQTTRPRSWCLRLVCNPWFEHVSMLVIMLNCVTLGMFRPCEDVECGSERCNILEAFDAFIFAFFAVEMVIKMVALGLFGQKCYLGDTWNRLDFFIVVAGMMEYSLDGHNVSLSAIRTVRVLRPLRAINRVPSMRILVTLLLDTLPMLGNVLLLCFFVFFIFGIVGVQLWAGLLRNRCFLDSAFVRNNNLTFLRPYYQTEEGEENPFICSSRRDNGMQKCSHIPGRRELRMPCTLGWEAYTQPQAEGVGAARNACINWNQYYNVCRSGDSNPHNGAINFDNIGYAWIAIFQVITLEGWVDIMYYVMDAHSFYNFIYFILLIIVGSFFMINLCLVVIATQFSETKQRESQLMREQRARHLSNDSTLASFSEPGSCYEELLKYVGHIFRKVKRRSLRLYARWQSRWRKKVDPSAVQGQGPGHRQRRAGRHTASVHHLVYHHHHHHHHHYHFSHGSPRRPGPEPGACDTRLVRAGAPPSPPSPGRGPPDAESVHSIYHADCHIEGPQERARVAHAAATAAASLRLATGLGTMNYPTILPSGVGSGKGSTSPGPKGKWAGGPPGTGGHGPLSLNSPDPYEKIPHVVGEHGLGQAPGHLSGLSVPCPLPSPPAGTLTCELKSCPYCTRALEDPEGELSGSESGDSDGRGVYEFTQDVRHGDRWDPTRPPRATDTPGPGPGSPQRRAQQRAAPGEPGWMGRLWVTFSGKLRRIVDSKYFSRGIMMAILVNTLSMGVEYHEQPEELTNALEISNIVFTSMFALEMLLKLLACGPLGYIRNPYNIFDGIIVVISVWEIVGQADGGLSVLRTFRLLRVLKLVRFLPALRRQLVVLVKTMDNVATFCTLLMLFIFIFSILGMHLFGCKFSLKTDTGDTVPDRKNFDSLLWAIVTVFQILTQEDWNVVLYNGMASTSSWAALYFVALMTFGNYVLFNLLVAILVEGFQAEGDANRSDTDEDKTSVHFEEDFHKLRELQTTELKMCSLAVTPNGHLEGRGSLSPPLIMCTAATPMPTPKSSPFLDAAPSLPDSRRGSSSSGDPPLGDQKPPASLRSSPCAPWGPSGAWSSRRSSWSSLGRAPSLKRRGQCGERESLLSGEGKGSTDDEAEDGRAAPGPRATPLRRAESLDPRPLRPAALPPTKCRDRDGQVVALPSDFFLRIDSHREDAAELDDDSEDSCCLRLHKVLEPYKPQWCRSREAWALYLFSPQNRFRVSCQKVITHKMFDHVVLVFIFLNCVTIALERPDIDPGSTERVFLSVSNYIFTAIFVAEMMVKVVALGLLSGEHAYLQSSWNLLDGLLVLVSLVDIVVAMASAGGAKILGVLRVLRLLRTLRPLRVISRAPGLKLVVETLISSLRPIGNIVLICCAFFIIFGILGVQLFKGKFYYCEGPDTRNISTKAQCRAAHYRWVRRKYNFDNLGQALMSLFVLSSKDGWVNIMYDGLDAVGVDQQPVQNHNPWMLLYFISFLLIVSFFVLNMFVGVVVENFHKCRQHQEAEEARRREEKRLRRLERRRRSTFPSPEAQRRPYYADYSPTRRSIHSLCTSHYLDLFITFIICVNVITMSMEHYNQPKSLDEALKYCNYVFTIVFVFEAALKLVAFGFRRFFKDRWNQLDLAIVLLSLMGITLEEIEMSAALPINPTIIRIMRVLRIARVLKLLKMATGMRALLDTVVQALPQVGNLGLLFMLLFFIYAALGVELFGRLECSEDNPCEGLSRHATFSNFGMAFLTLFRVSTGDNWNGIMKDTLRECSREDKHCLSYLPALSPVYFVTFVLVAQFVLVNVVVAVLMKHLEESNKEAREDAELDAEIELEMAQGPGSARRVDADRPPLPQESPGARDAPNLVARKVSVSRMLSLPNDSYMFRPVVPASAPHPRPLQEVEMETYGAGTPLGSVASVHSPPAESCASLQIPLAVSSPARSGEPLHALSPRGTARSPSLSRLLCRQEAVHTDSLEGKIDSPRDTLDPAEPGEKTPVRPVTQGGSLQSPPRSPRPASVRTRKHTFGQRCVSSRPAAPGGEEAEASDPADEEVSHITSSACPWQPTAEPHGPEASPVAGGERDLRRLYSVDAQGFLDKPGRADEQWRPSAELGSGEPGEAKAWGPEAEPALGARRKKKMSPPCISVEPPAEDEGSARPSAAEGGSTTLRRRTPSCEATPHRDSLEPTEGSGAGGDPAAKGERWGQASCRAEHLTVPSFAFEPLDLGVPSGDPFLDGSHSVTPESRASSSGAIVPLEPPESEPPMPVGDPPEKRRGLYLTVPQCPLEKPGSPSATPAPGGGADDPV
Chain of Trypsin (P00761 whole entry): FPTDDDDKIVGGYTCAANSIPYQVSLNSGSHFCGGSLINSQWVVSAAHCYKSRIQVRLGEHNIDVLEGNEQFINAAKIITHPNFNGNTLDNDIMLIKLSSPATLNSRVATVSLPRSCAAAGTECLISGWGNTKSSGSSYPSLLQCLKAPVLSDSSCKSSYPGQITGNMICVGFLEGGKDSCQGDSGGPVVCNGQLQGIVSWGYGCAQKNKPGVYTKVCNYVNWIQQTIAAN
Chain of Photoreceptor-specific nuclear receptor (Q9Y5X4 whole entry): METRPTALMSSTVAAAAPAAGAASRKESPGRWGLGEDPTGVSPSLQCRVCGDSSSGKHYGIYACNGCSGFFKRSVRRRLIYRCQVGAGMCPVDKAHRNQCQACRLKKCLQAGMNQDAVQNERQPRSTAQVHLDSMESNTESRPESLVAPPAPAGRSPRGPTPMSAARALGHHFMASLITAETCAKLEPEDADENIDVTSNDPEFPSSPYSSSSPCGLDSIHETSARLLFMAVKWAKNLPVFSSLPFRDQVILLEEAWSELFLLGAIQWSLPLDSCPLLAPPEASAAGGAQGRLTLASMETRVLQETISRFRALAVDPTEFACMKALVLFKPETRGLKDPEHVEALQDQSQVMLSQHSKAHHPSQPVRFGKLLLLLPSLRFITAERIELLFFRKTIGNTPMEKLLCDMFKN

In the case of `Cc1ccc(-c2nnc(NC(=O)COc3ccc(F)cc3)o2)cc1C`, the EC50 [1] is reported as 10 µM (active).

With `Cn1c(=O)c2c(nc(N/N=C/c3ccc(OC(=O)c4ccco4)cc3)n2Cc2ccccc2)n(C)c1=O` the EC50 [2] was > 100 µM (not active).

For `O=C(c1ccc(Cl)c(S(=O)(=O)N2CCCCCC2)c1)N1CCCCC1`, the IC50 [3] was 32.7 µM (not active).

In the case of `NS(=O)(=O)c1ccc(NC(S)=NC2CCCC2)cc1`, the IC50 [4] is reported as 28 µM (active).

In the case of `NS(=O)(=O)c1ccc(NC(=O)/C=C/c2cn(-c3ccccc3)nc2-c2cccc(Cl)c2)cc1`, the AC50 (Trypsin) is reported as 81.4 µM (active).

With `Sc1n[nH]c(-c2ccccc2Cl)n1` the IC50 [5] was > 50 µM (inactive) and the IC50 (Phosphomannomutase 2) was > 100 µM (inactive).

For `O=C(Nc1ccc2c(c1)OCCO2)c1cccc(Cl)c1Cl`, the EC50 (Troponin, cardiac muscle) was > 71.4 µM (inactive).

With `CCN(CC)CCN1C(=O)C(O)=C(C(=O)c2cc3ccccc3o2)C1c1cccnc1` (stereo not given) the IC50 [6] was > 39.8 µM (not active) and the IC50 [7] was 2.95 µM (active).

For `O=C(COc1ccc(F)cc1Cl)Nc1nnc(-c2ccc3ccccc3c2)o1`, the EC50 [1] was 3.6 µM (active).

For `Cc1ccc(C(=O)COc2ccccc2C(=O)Nc2ccccc2)cc1`, the IC50 [8] was > 20 µM (inactive).

In the case of `CCOC(=O)c1cc([N+](=O)[O-])cc([N+](=O)[O-])c1Sc1[nH]cnc2ncnc1-2`, the IC50 (Beta-galactosidase) is reported as > 66.6 µM (inactive), the IC50 [9] is reported as 3.29 µM (active) and the CC50 [10] is reported as 1.6 µM (active).

For `CSc1cccc(NC(=O)CCCOc2cc(=O)n(C)c3ccccc23)c1`, the EC50 (Wee1-like protein kinase) was > 49.7 µM (inactive) and the EC50 [11] was > 49.7 µM (inactive).

With `CCOC(=O)/C(=C\c1c[nH]c2ccccc12)NC(C)=O` the EC50 (Troponin, cardiac muscle) was > 71.4 µM (inactive).

For `Cc1cc(O)nc(-n2nc(C)cc2NC(=O)c2ccccc2)n1`, the EC50 (Wee1-like protein kinase) was > 16.6 µM (active) and the EC50 [11] was > 49.7 µM (inactive).

With `COc1ccc(C(CC(=O)N2CCCC(C)C2)c2c(OC)cc(OC)c3c(-c4ccccc4)cc(=O)oc23)cc1` (stereo not given) the IC50 [12] was 8.23 µM (active), the EC50 [13] was 14.5 µM (active) and the EC50 (Streptokinase A) was 41.2 µM (active). The EC50 (Streptococcus) was > 150 µM (not active), the IC50 [14] was 28.3 µM (active) and the IC50 [15] was 7.99 µM (active).

With `O=C(O)C(O)c1ccccc1` (stereo not given) [MANDELIC ACID] the IC50 [16] was > 100 µM (not active), the IC50 [17] was > 100 µM (not active) and the IC50 [18] was > 100 µM (not active). For the same compound, the IC50 [19] was > 100 µM (not active), the IC50 [20] was > 100 µM (inactive) and the IC50 [21] was > 100 µM (inactive).

With `CC(C)(C)NC(=O)c1cc(-c2ccc(Cl)cc2Cl)n[nH]1` the IC50 [17] was > 100 µM (not active) and the IC50 [22] was > 100 µM (inactive).

With `Cc1ccc(Cl)cc1-n1ncc2c(NNC(=O)c3ccco3)ncnc21` the EC50 [2] was 63.2 µM (not active).
